Source: US7625905B2, “Octahydro-pyrrolo[3,4-c]pyrrole CCR5 receptor antagonists” (Roche Palo Alto LLC, priority 2006, dated 2009)

Columns and labels:
[1] = biological target: T1, CCR5 (Homo sapiens, UniProt P51681); test: CCR5-mediated CCF (cell-cell fusion) assay, Hela-R5 / CEM-NKr-CCR5-Luc luciferase readout; type: cell-based; set-up: host or cells: CEM-NKr-CCR5-Luc cells, co-cultured with Hela-R5 cells expressing gp160 and Tat; settings: Hela-R5 and CEM-NKr-CCR5-Luc co-culture 24 hrs
Method: The capacity for novel compounds of the present invention to bind to the CCR5 receptor and thereby antagonize CCR5 function can be evaluated with assay systems known in the art.
Hela-R5 cells (express gp160 from R5-tropic virus and HIV-1 Tat) were plated in 384 well white culture plates (BD Bioscience, Palo Alto, Calif.) at 7.5×10^3 cells per well in phenol red-free Dulbecco's Modified Eagle Medium (DMEM) supplemented with 10% FBS, 1× Pen-Strep, 300 μg/ml G418, 100 μg/ml hygromycin, and 1 μg/ml Doxycycline (Dox) (BD Bioscience, Palo Alto, Calif.), using Multimek (Beckman, Fullerton, Calif.) and incubated at 37° C. overnight to induce the expression of gp160. Ten μl diluted compounds in medium containing 5% DMSO were added to the cells, followed by the addition of CEM-NKr-CCR5-Luc (obtained from NIH AIDS Research & Reference Reagents Program) that expresses CD4 and CCR5 and carries a HIV-2 long terminal repeat (LTR)-driven luciferase reporter gene at 1.5×10^4 cells/15 μL/well and incubated for 24 hrs. At the end of co-culture, 15 μl of Steady-Glo luciferase substrate was added into each well, and the cultures were sealed and gently shaken for 45 min. The luciferase activity were measured for 10 sec per well as luminescence by using 16-channel TopCount NXT (PerkinElmer, Shelton, Conn.) with 10 min dark adaptation and the readout is count per second (CPS). For the drug interaction experiments, small molecule compounds or antibodies were serially diluted in serum-free and phenol red-free RPMI containing 5% dimethyl sulfoxide (DMSO) (CalBiochem, La Jolla, Calif.) and 1× Pen-Strep. Five μl each of the two diluted compound or mAb to be tested for drug-drug interactions were added to the Hela-R5 cells right before the addition of target cells.

[2] = biological target: T1, CCR5; test: Human CCR5 receptor-ligand binding (RANTES) assay; set-up: expressed in transfected cells; settings: 125I RANTES 0.1 nM, CHO-Gα16-hCCR5 cells
Method: The construct was transfected into CHO-Gα16 cells by using Fugene Reagent (Roche).
Adherent cells in […] tissue culture flask (˜90% confluent) were harvested using 1 mM EDTA in PBS (phosphate-buffered saline) without Ca^2+ and Mg^2+. Cells were washed twice with PBS containing no Ca^2+ and Mg^2+.
Eighty μl CHO-Gα16-hCCR5 (1×10^6/ml) cells were added to 96 well plates.
The compound dilutions were made in PBS, 1% BSA. Total reaction volume was 100 μl per well. The test compounds were added to the cells prior to the addition of radioligand.
After incubation, the cells were harvested onto GF/C filter plates using Packard cell harvester. Filters were pretreated with 0.3% PEI/0.2% BSA for 30 min. The filter plate was washed rapidly 5 times with 25 mM HEPES, 500 mM NaCl, 1 mM CaCl2 and 5 mM MgCl2 adjusted to pH 7.1. Plates were dried in oven (70° C.) for 20 min, added with 40 μl scintillation fluid and sealed with Packard TopSeal-A. Packard Top Count was used to measure of the radioactivity for 1 min per well.
Total binding was determined with control wells added with radioisotope and buffer and the non-specific binding was determined using an excess cold RANTES to some of the control wells. Specific binding was determined by subtracting the non-specific form total binding. […] IC50 values were determined using varying concentrations of the test ligand in triplicates and the data was analyzed using GraphPad Prism (GraphPad, San Diego, Calif.).

[3] = tested on: collagen induced arthritis; settings: collagen-induced arthritis model; cited from earlier work
[4] = biological target: T1, CCR5; test: Chemotaxis assay with L1.2hCCR5 cells; type: cell-based; set-up: expressed in transfected cells; settings: Inhibition of RANTES stimulated chemotaxis
Excerpt: A chemotaxis assay is a functional assay which measures the ability of a non-adherent cell line expressing human CCR5 receptor to migrate across a membrane in response to either test compounds or natural attractant ligand(s) (i.e., RANTES, MIP-1β). Generally, chemotaxis assays monitor the directional movement or migration of a suitable cell (such as a leukocyte (e.g., lymphocyte, eosinophil, basophil)) into or through a barrier (e.g., endothelium, a permeable filter membrane), toward, from a first surface of the barrier toward an opposite second surface containing attractant ligands. Membranes or filters provide convenient barriers to monitor the directional movement or migration of a suitable cell into or through a filter, toward increased levels of an attractant. […]
After the incubation period, the cells are scraped off the filter and the plates are spun in a table top centrifuge at 2,000 rpm for 10 min. The filter is then removed and the density of the cells that have migrated to the bottom wells is detected using CyQUANT^R cell proliferation assay kit (Invitrogen) and the Spectra MAX GeminiXS plate reader (Molecular Devices) according to the manufacturers' instructions. Using the fluorescence measurements the percent migration is determined by % migration=[1−(max−obs)/(max−min)]×100. […] This is calculated with Excel Fit.

T1 sequence (P51681 whole entry, the tested form may be a part): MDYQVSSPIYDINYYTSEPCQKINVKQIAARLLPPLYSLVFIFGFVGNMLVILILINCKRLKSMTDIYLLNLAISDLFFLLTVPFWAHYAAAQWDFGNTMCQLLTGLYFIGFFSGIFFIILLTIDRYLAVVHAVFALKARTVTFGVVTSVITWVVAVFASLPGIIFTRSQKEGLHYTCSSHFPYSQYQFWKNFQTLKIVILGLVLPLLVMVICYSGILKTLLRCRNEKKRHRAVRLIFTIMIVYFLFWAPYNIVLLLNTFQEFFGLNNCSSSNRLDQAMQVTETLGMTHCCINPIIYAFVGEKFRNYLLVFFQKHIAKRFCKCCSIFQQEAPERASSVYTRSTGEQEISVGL

Compound | IC50 [1] | IC50 [2] | incidence and severity of arthritis [3] | infiltration of inflammatory CCR5+ T-cells into the joint [3] | IC50 [4]
1-(4-{3-[5-(4,6-Dimethyl-pyrimidine-5-carbonyl)-hexahydro-pyrrolo[3,4-c]pyrrol-2-yl]-1-phenyl-propyl}-piperidin-1-yl)-2-methyl-propan-1-one [V-15] | 202 nM | 8.2 nM |  |  | 
Cc1ncnc(C)c1C(=O)N1CC2CN(CCC3(c4ccccc4)CCN(C(=O)OC(C)(C)C)CC3)CC2C1 (stereo not shown) [I-1, tert-Butyl 4-{2-[5-(4,6-dimethyl-pyrimidine-5-carbonyl)-hexahydro-pyrrolo[3,4-c]pyrrol-2-yl]-ethyl}-4-phenyl-piperidine-1-carboxylate] | 835 nM | 835 nM |  |  | 
Cc1ncnc(C)c1C(=O)N1CC2CN(CCC3(c4cccc(F)c4)CCN(C(=O)c4ccccc4)CC3)CC2C1 (stereo not shown) [I-3] | 306 nM | 77.6 nM |  |  | 
Cc1ncnc(C)c1C(=O)N1CC2CN(CCC3(c4ccccc4)CCN(C(=O)c4ccc(S(N)(=O)=O)cc4)CC3)CC2C1 (stereo not shown) [I-9] | 2500 nM | 500 nM |  |  | 
Cc1ncnc(C)c1C(=O)N1CC2CN(CCC3(c4ccccc4)CCN(C(=O)c4cccc(S(=O)(=O)N(C)C)c4)CC3)CC2C1 (stereo not shown) [I-14] | 1200 nM | 48.4 nM |  |  | 
Cc1ncnc(C)c1C(=O)N1CC2CN(CCC3(c4cccc(F)c4)CCN(C(=O)c4cccc(S(=O)(=O)N(C)C)c4)CC3)CC2C1 (stereo not shown) [I-19] | 393 nM | 50.9 nM |  |  | 
Cc1ncnc(C)c1C(=O)N1CC2CN(CCC3(c4ccccc4)CN(C(=O)CC4CCCC4)C3)CC2C1 (stereo not shown) [II-6] | 136 nM | 27.7 nM |  |  | 
Cc1ncnc(C)c1C(=O)N1CC2CN(CCC3(c4ccccc4)CN(C(=O)C4(C(F)(F)F)CC4)C3)CC2C1 (stereo not shown) [II-15] | 486 nM | 51.5 nM |  |  | 
Cc1ncnc(C)c1C(=O)N1CC2CN(CCC3(c4ccccc4)CN(S(=O)(=O)C(C)C)C3)CC2C1 (stereo not shown) [II-19] |  | 105 nM |  |  | 
Cc1ncnc(C)c1C(=O)N1CC2CN(CCC3(c4ccccc4)CN(S(=O)(=O)C4CCCC4)C3)CC2C1 (stereo not shown) [II-22, {5-[2-(1-Cyclopentanesulfonyl-3-phenyl-azetidin-3-yl)-ethyl]-hexahydro-pyrrolo[3,4-c]pyrrol-2-yl}-(4,6-dimethyl-pyrimidin-5-yl)-methanone] | 458 nM | 27.1 nM |  |  | 
Cc1cc(=O)oc(C)c1C(=O)N1CC2CN(CCC3(c4ccccc4)CN(C(=O)C4CCC(F)(F)CC4)C3)CC2C1 (stereo not shown) [II-33] | 2.6 nM | 11.3 nM |  |  | 
Cc1ncnc(C)c1C(=O)N1CC2CN(CCC3(c4ccccc4)CN(C(=O)C4CCC(F)(F)CC4)C3)CC2C1 (stereo not shown) [II-39] | 9.5 nM | 18.8 nM |  |  | 
Cc1cc(C#N)nc(C)c1C(=O)N1CC2CN(CCC3(c4ccccc4)CCN(C(=O)C(C)(C)C)C3)CC2C1 (stereo not shown) [III-8] | 360 nM | 68.8 nM |  |  | 
Cc1ncnc(C)c1C(=O)N1CC2CN(CCC(c3ccccc3)C3CN(C(=O)C(C)C)C3)CC2C1 (stereo not shown) [IV-10] | 458 nM | 244 nM |  |  | 
Cc1ncnc(C)c1C(=O)N1CC2CN(CCC(c3cccc(F)c3)C3CN(S(=O)(=O)c4cccc(F)c4)C3)CC2C1 (stereo not shown) [IV-14] | 4.2 nM | 38.6 nM |  |  | 
Cc1ccc(-c2ccc3c(c2)C=C(C(=O)Nc2ccc(C[N+](C)(C)C4CCOCC4)cc2)CCC3)cc1.[Cl-] [TAK-779] |  |  | reduce both the incidence and severity of arthritis | inhibited | 
COC(=O)N1CCC(C(CCN2CC3CN(C(=O)c4c(C)ncnc4C)CC3C2)c2ccccc2)CC1 (stereo not shown) [V-7, 4-{3-[5-(4,6-Dimethyl-pyrimidine-5-carbonyl)-hexahydro-pyrrolo[3,4-c]pyrrol-2-yl]-1-phenyl-propyl}-piperidine-1-carboxylic acid methyl ester] | 744 nM | 102 nM |  |  | 
Cc1ncnc(C)c1C(=O)N1CC2CN(CCC(c3ccccc3)C3CCN(S(C)(=O)=O)CC3)CC2C1 (stereo not shown) [V-12] |  |  |  |  | 765 nM
